Data taken from patent publication US20220389049A1, “REVERSIBLE TERMINATORS FOR DNA SEQUENCING AND METHODS OF USING THE SAME” (Centrillion Technologies, Inc., priority 2019, published 2022).

Legend:
growing DNA chain = test: Enzymatic incorporation: primer extension with compound 15 into a growing DNA chain (FIG. 3); type: biochemical; conditions: FIG. 3 lanes 3, 4, 6 and 7
DNA polymerase ("CENT1") = test: Enzymatic incorporation and cleavage studies: primer extension with compound 5 into a growing DNA chain (FIG. 2); type: biochemical
Text: Enzymatic Incorporation and Cleavage Studies: (2R,3S,5R)-2-(((hydroxy((hydroxy(phosphonooxy)phosphoryl)oxy)phosphoryl)oxy)methyl)-5-(5-methyl-2,4-dioxo-3,4-dihydropyrimidin-1(2H)-yl)tetrahydrofuran-3-yl 3-azidopropanoate (5), a model compound, was synthesized similar to conditions of the relevant reactions disclosed in Scheme 1.

[1] = Chemical cleavage of the 3′O-blocking group of the free triphosphate by reducing reagent; type: physicochemical; conditions: heating with THPP or TCEP in 1×TE buffer at 55° C. for 5 min
Experimental: Cleavage of 3′O-[dithio-1-butynyl)-methyl)-thymidine triphosphate (15): The 3′O-bolcking group, alkyne dithioalkynemethyl ether from triphosphate 15 was cleaved by heating with 1, 4-dithiothreitol or (DTT) or tris(2-carboxyethyl) phosphine (TCEP) in 1×TE buffer (pH 9.5) at 55 degree Celsius for 5 min to afford thymidine triphosphate as shown in the Scheme 5.

SMILES | enzymatic incorporation (growing DNA chain) | blockage of further extension after incorporation of the terminator (DNA polymerase ("CENT1"); "runaway" reaction in the presence of all four unmodified dNTPs and a polymerase, FIG. 2 lane 4) | cleavage of the label and the blocking group after incorporation (DNA polymerase ("CENT1"); FIG. 2 lane 5) | further extension by the next base added after the cleavage (DNA polymerase ("CENT1"); FIG. 2 lane 6) | enzymatic incorporation (DNA polymerase ("CENT1"); in the presence of DNA polymerase ("CENT1"), FIG. 2 lane 3) | cleavage of the 3′O-azidoalkanoate [1]
C#CCCCSSCO[C@@H]1C[C@H](n2cc(C)c(=O)[nH]c2=O)O[C@@H]1COP(=O)(O)OP(=O)(O)OP(=O)(O)O [compound 15] | excellent enzymatic incorporation |  |  |  |  | 
Cc1cn([C@H]2C[C@@H](OC(=O)CCN=[N+]=[N-])[C@@H](COP(=O)(O)OP(=O)(O)OP(=O)(O)O)O2)c(=O)[nH]c1=O [compound 5, 3′O-(3-azidopropionyl)-thymidine triphosphate] |  | blockage of further extension | cleavage of the label and the blocking group | further extension by the next base added | can be used in enzymatic incorporation | neatly cleaved
